Data from US8445510B2, “Fused bicyclic kinase inhibitors” (OSI Pharmaceuticals, LLC, priority 2011, dated 2013).

What was measured:
[1] = target: T1, Aurora B (Homo sapiens, UniProt Q96GD4); assay: Aurora B cell mechanistic assay (HT-29), phospho-Histone H3 (Ser10) ELISA; type: cell-based; conditions: HT-29 cell line; inhibition of phospho-Histone H3 (Ser10); at least duplicate experiments (italicized if single experiment); read-out: Aurora B mech IC50
T1 construct: HT-29 cells grown in complete growth media
Experimental: The cellular activity of the compounds of the present invention against Aurora B may be determined by the following procedure. HT-29 cells grown in complete growth media (McCoy's 5A, 10% FCS, 1% L-glutamine) were plated into wells of a 96 well tissue culture plate (Falcon 3072) at a cell density of 4×10^4 cells/0.09 ml media/well. Cells were subsequently incubated overnight in a 5% CO2 humidified 37° C. incubator. The following day 10 μl of a 10× stock of test compound serially diluted in media was added to the cells and incubated for 1 h at 37° C. at which time Calyculin A (Cell Signaling #9902) was added at a concentration of 100 nM and cells incubated for an additional 30 minutes in a 5% CO2 humidified 37° C. incubator. Media was then aspirated and cells lysed using a Triton based lysis buffer. Lysates were transferred to a pre-coated anti-Histone H3 antibody coated plate supplied by Cell Signaling in their PathScan phospho-Histone H3 (Ser10) ELISA kit (#7155). After an overnight incubation with lysate the ELISA was continued following the manufacturer's instructions. Signal was measured on a Wallac Victor plate reader at 450 nm. DMSO control treated cells served as 100% signal and an Aurora B kinase inhibitor served as 100% inhibition. The percent inhibition of phospho-Histone H3 (Ser10) was expressed as % control. IC50 values were calculated from the percent control data using a standard four-parameter model.
The IC50 values of exemplary compounds of the present invention determined in a Aurora B cell mechanistic assay using the HT-29 cell line according to the procedures described herein in at least duplicate experiments are abbreviated as follows and are shown in Table 4: A, IC50≦0.05 μM; B, 0.05 μM<IC50≦0.2 μM; C, 0.2 μM<IC50≦1 μM; D, IC50>1 μM; ND, not determined. If only data from single experiments are available, the abbreviations are italicized. The Example # of Table 4 corresponds to the compound example number as illustrated in the Examples section.

[2] = target: T2, RON (Homo sapiens, UniProt Q04912); assay: sfRON cell mechanistic assay (HeLa), phosphorylated RON ELISA; type: cell-based; conditions: HeLa cells transfected with sfRON; inhibition of phosphorylated RON; four hours incubation; at least duplicate experiments; read-out: sfRON mech IC50
T2 sequence (Q04912 913-1400): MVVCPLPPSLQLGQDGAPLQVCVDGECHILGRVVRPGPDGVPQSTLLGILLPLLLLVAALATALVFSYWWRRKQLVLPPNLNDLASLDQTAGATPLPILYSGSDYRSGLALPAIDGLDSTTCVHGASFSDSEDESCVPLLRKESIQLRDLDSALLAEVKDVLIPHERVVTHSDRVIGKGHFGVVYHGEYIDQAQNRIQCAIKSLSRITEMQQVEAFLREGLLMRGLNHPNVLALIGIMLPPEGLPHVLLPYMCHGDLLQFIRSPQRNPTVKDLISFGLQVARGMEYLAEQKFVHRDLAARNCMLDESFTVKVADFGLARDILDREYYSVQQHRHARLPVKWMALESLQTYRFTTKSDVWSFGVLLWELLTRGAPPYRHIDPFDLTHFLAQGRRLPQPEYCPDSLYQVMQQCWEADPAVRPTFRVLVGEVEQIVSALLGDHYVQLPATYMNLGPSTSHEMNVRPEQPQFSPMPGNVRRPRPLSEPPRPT
Outline: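 HeLa cells transiently transfected with sfRON plasmid, then exposed 4 h at 37 °C to a 6-point compound series (typically 10 μM to 3 nM, 0.5% DMSO). Phospho-RON (pY1238/1239) in lysates measured by sandwich ELISA with luminescence. IC50 from 4-parameter fit of percent-of-DMSO-control data, at least duplicate runs.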

T1 sequence (Q96GD4 whole entry): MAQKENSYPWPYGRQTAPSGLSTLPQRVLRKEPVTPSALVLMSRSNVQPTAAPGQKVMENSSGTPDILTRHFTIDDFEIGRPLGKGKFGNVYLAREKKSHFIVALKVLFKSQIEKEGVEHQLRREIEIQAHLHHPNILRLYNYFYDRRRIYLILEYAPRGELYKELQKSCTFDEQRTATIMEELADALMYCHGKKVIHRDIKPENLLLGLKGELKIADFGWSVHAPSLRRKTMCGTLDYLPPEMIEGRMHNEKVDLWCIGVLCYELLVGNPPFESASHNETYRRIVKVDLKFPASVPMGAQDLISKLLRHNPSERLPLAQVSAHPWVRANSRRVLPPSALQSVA

For COc1ccc(F)c(Cl)c1[C@@H](C)c1c[nH]c2ncc(-c3cn(C[C@@H](O)CO)nc3C(F)(F)F)cc12 [Example 34, (2R)-3-[4-{3-[(1S)-1-(2-Chloro-3-fluoro-6-methoxyphenyl)ethyl]-1H-pyrrolo[2,3-b]pyridin-5-yl}-3-(trifluoromethyl)-1H-pyrazol-1-yl]propane-1,2-diol], which IC50 [1] is on record?
Its IC50 is > 1 µM.

And the IC50 [2]?
Its IC50 is > 1 µM.

COc1ccc(F)c(Cl)c1[C@@H](C)c1c[nH]c2ncc(-c3cnn(C[C@@H](O)CO)c3C(F)(F)F)cc12 [Example 35, (2R)-3-[4-{3-[(1S)-1-(2-Chloro-3-fluoro-6-methoxyphenyl)ethyl]-1H-pyrrolo[2,3-b]pyridin-5-yl}-5-(trifluoromethyl)-1H-pyrazol-1-yl]propane-1,2-diol] was tested. Which IC50 [1] did it give?
The IC50 was > 1 µM.

What about the IC50 [2] of the same compound?
Its IC50 is > 1 µM.

Which results are given for COc1ccc(F)c(Cl)c1[C@@H](C)c1c[nH]c2ncc(-c3cnn(C)c3N)cc12 [Example 38, 4-{3-[(1S)-1-(2-Chloro-3-fluoro-6-methoxyphenyl)ethyl]-1H-pyrrolo[2,3-b]pyridin-5-yl}-1-methyl-1H-pyrazol-5-amine]?
IC50 [1]: 0.2 to 1 µM; IC50 [2]: 0.2 to 1 µM

For COc1ccc(F)c(Cl)c1[C@@H](C)c1c[nH]c2ncc(-c3cn(C)nc3C(N)=O)cc12 [Example 39, 4-{3-[(1S)-1-(2-Chloro-3-fluoro-6-methoxyphenyl)ethyl]-1H-pyrrolo[2,3-b]pyridin-5-yl}-1-methyl-1H-pyrazole-3-carboxamide], which IC50 [1] is on record?
The IC50 was > 1 µM.

And the IC50 [2]?
Its IC50 is > 1 µM.

What does the source list for COc1ccc(F)c(Cl)c1[C@@H](C)c1c[nH]c2ncc(-c3c(C)nn(C)c3C(N)=O)cc12 [Example 41, 4-{3-[(1S)-1-(2-Chloro-3-fluoro-6-methoxyphenyl)ethyl]-1H-pyrrolo[2,3-b]pyridin-5-yl}-1,3-dimethyl-1H-pyrazole-5-carboxamide]?
IC50 [1]: > 1 µM; IC50 [2]: > 1 µM

What does the source list for COc1ccc(F)c(Cl)c1[C@@H](C)c1c[nH]c2ncc(-c3cn(C)nc3CO)cc12 [Example 42, (4-{3-[(1S)-1-(2-Chloro-3-fluoro-6-methoxyphenyl)ethyl]-1H-pyrrolo[2,3-b]pyridin-5-yl}-1-methyl-1H-pyrazol-3-yl)methanol]?
IC50 [1]: 0.2 to 1 µM; IC50 [2]: > 1 µM

What does the source list for COc1ccc(F)c(Cl)c1[C@@H](C)c1c[nH]c2ncc(-c3cnn(C)c3C(N)=O)cc12 [Example 43, 4-{3-[(1S)-1-(2-Chloro-3-fluoro-6-methoxyphenyl)ethyl]-1H-pyrrolo[2,3-b]pyridin-5-yl}-1-methyl-1H-pyrazole-5-carboxamide]?
IC50 [1]: > 1 µM; IC50 [2]: > 1 µM

What does the source list for COc1ccc(F)c(Cl)c1[C@@H](C)c1c[nH]c2ncc(-c3cnn(C)c3CO)cc12 [Example 44, (4-{3-[(1S)-1-(2-Chloro-3-fluoro-6-methoxyphenyl)ethyl]-1H-pyrrolo[2,3-b]pyridin-5-yl}-1-methyl-1H-pyrazol-5-yl)methanol]?
IC50 [1]: > 1 µM; IC50 [2]: > 1 µM

Which results are given for COc1ccc(F)c(Cl)c1[C@@H](C)c1c[nH]c2ncc(-c3c(C)nn(C)c3CO)cc12 [Example 45, (4-{3-[(1S)-1-(2-Chloro-3-fluoro-6-methoxyphenyl)ethyl]-1H-pyrrolo[2,3-b]pyridin-5-yl}-1,3-dimethyl-1H-pyrazol-5-yl)methanol]?
IC50 [1]: > 1 µM; IC50 [2]: > 1 µM

Which IC50 [1] does the source give for COc1ccc(F)c(Cl)c1[C@@H](C)c1c[nH]c2ncc(-c3cn(C)nc3C#N)cc12 [Example 46, 4-{3-[(1S)-1-(2-Chloro-3-fluoro-6-methoxyphenyl)ethyl]-1H-pyrrolo[2,3-b]pyridin-5-yl}-1-methyl-1H-pyrazole-3-carbonitrile] here?
The IC50 was > 1 µM.

And the IC50 [2]?
The IC50 was > 1 µM.

What does the source list for CCc1nn([C@H]2CC[C@H](O)CC2)cc1-c1cnc2[nH]cc([C@H](C)c3c(OC)ccc(F)c3Cl)c2c1 [Example 47, trans-4-(4-{3-[(1S)-1-(2-Chloro-3-fluoro-6-methoxyphenyl)ethyl]-1H-pyrrolo[2,3-b]pyridin-5-yl}-3-ethyl-1H-pyrazol-1-yl)cyclohexanol]?
IC50 [1]: > 1 µM; IC50 [2]: 0.2 to 1 µM

What does the source list for CCc1c(-c2cnc3[nH]cc([C@H](C)c4c(OC)ccc(F)c4Cl)c3c2)cnn1[C@H]1CC[C@H](O)CC1 [Example 48, trans-4-(4-{3-[(1S)-1-(2-Chloro-3-fluoro-6-methoxyphenyl)ethyl]-1H-pyrrolo[2,3-b]pyridin-5-yl}-5-ethyl-1H-pyrazol-1-yl)cyclohexanol]?
IC50 [1]: > 1 µM; IC50 [2]: > 1 µM

How did the IC50 [1] turn out when COc1ccc(F)c(Cl)c1[C@@H](C)c1c[nH]c2ncc(-c3cnn([C@H]4CC[C@H](O)CC4)c3Cl)cc12 [Example 49, trans-4-(5-Chloro-4-{3-[(1S)-1-(2-chloro-3-fluoro-6-methoxyphenyl)ethyl]-1H-pyrrolo[2,3-b]pyridin-5-yl}-1H-pyrazol-1-yl)cyclohexanol] was run?
Its IC50 is > 1 µM.

What about the IC50 [2] of the same compound?
The IC50 was > 1 µM.

What does the source list for COc1ccc(F)c(Cl)c1[C@@H](C)c1c[nH]c2ncc(-c3cn(C)nc3CN)cc12 [Example 50, 1-(4-{3-[(1S)-1-(2-Chloro-3-fluoro-6-methoxyphenyl)ethyl]-1H-pyrrolo[2,3-b]pyridin-5-yl}-1-methyl-1H-pyrazol-3-yl)methanamine]?
IC50 [1]: 0.2 to 1 µM; IC50 [2]: > 1 µM

Which results are given for COc1ccc(F)c(Cl)c1[C@@H](C)c1c[nH]c2ncc(-c3c(CO)nn(C)c3C)cc12 [Example 51, (4-{3-[(1S)-1-(2-Chloro-3-fluoro-6-methoxyphenyl)ethyl]-1H-pyrrolo[2,3-b]pyridin-5-yl}-1,5-dimethyl-1H-pyrazol-3-yl)methanol]?
IC50 [1]: > 1 µM; IC50 [2]: > 1 µM

COc1ccc(F)c(Cl)c1[C@@H](C)c1c[nH]c2ncc(-c3cnn([C@H]4CC[C@@H](O)CC4)c3C)cc12 [Example 52, cis-4-(4-{3-[(1S)-1-(2-Chloro-3-fluoro-6-methoxyphenyl)ethyl]-1H-pyrrolo[2,3-b]pyridin-5-yl}-5-methyl-1H-pyrazol-1-yl)cyclohexanol] was tested. Which IC50 [1] did it give?
Its IC50 is > 1 µM.

And the IC50 [2]?
Its IC50 is 0.2 to 1 µM.

With COc1ccc(F)c(Cl)c1[C@@H](C)c1c[nH]c2ncc(-c3cnn([C@H]4CC[C@H](N(C)C)CC4)c3C)cc12 [Example 53, trans-4-(4-{3-[(1S)-1-(2-Chloro-3-fluoro-6-methoxyphenyl)ethyl]-1H-pyrrolo[2,3-b]pyridin-5-yl}-5-methyl-1H-pyrazol-1-yl)-N,N-dimethylcyclohexanamine] as the compound, how does the IC50 [1] read?
The IC50 was 0.05 to 0.2 µM.

What about the IC50 [2] of the same compound?
Its IC50 is 0.2 to 1 µM.

Which IC50 [1] does the source give for COc1ccc(F)c(Cl)c1[C@@H](C)c1c[nH]c2ncc(-c3cnn([C@H]4CC[C@@H](N(C)C)CC4)c3C)cc12 [Example 54, cis-4-(4-{3-[(1S)-1-(2-Chloro-3-fluoro-6-methoxyphenyl)ethyl]-1H-pyrrolo[2,3-b]pyridin-5-yl}-5-methyl-1H-pyrazol-1-yl)-N,N-dimethylcyclohexanamine] here?
The IC50 was 0.2 to 1 µM.

What about the IC50 [2] of the same compound?
The IC50 was 0.2 to 1 µM.

For COc1ccc(F)c(Cl)c1[C@@H](C)c1c[nH]c2ncc(-c3cn(C)nc3Cl)cc12 [Example 60, 3-[(1S)-1-(2-chloro-3-fluoro-6-methoxyphenyl)ethyl]-5-(3-chloro-1-methyl-1H-pyrazol-4-yl)-1H-pyrrolo[2,3-b]pyridine], which IC50 [1] is on record?
The IC50 was 0.2 to 1 µM.

What about the IC50 [2] of the same compound?
Its IC50 is > 1 µM.

With COc1ccc(F)c(Cl)c1[C@@H](C)c1c[nH]c2ncc(-c3cn(C)nc3OC)cc12 [Example 61, 3-[(1S)-1-(2-Chloro-3-fluoro-6-methoxyphenyl)ethyl]-5-(3-methoxy-1-methyl-1H-pyrazol-4-yl)-1H-pyrrolo[2,3-b]pyridine] as the compound, how does the IC50 [1] read?
The IC50 was > 1 µM.

And the IC50 [2]?
Its IC50 is 0.2 to 1 µM.

Which results are given for COc1ccc(F)c(Cl)c1[C@@H](C)c1c[nH]c2ncc(-c3cnn(C)c3OC)cc12 [Example 62, 3-[(1S)-1-(2-chloro-3-fluoro-6-methoxyphenyl)ethyl]-5-(5-methoxy-1-methyl-1H-pyrazol-4-yl)-1H-pyrrolo[2,3-b]pyridine]?
IC50 [1]: > 1 µM; IC50 [2]: > 1 µM
